Columns and labels:
[1] = Dissolution test in fasted state simulated intestinal fluid; type: physicochemical; settings: for CONCENTRATION (dissolution): fasted state simulated intestinal fluid pH 6.5, 37° C., 50 rpm, in terms of compound (I); for concentration achieved relative to the concentration of compound (I): dissolution test, fasted state simulated intestinal fluid
Description: Each of compound (I) (50 mg), the compound of Example 1 (30 mg) and the compound of Example 2 (30 mg) was filled into a hydroxypropyl methylcellulose capsule, together with an equal weight of lactose hydrate. A 708-DS from Agilent Technologies was equipped with small stirring paddles and small vessels, and used as a dissolution test apparatus. Each drug-filled capsule was added to 50 ml of fasted state simulated intestinal fluid (a phosphate buffer pH 6.5 containing 0.75 mM lecithin and 3 mM sodium taurocholate) which had been warmed to 37° C. The drug was dissolved by rotating the stirring paddle at a speed of 50 rpm. The dissolved solution was sampled over time and the drug concentrations were measured by HPLC. Such dissolution tests using fasted state simulated intestinal fluid are often used to evaluate the dissolution and absorption characteristics of drugs (e.g., Takano et al., “Oral absorption of poorly water-soluble drugs: computer simulation of fraction absorbed in humans from a miniscale dissolution test”, Pharm Res., vol. 23, pp. 1144-1156, 2006). The results were shown in Table 1 and the graph in FIG. 12.

[2] = Test on oral absorption characteristics in dogs; type: in vivo, beagle dogs; settings: for AREA UNDER PLASMA CONCENTRATION-TIME CURVE, MEAN: mean of 4 beagle dogs; for PLASMA CONCENTRATION MEAN: mean of dogs

## COc1ncc(C)c(-c2ccc3c(c2)[nH]c(=O)c2cnn([C@H]4CCOC4)c23)c1C.O=C(O)/C=C\C(=O)O [Example 1, (S)-7-(2-methoxy-3,5-dimethylpyridin-4-yl)-1-(tetrahydrofuran-3-yl)-1H-pyrazolo[4,3-c]quinolin-4(5H)-one Monomaleate Salt]
[1]; 6 minutes
  CONCENTRATION (dissolution): 6400 ng/mL
[1]; 10 minutes
  CONCENTRATION (dissolution): 11800 ng/mL
[1]; 15 minutes
  CONCENTRATION (dissolution): 20800 ng/mL
[1]; 20 minutes
  CONCENTRATION (dissolution): 23300 ng/mL
[1]; 30 minutes
  CONCENTRATION (dissolution): 27900 ng/mL
[1]; 60 minutes
  CONCENTRATION (dissolution): 25000 ng/mL
[1]; 90 minutes
  CONCENTRATION (dissolution): 23900 ng/mL
[1]; 120 minutes
  CONCENTRATION (dissolution): 22100 ng/mL
[1]; 180 minutes
  CONCENTRATION (dissolution): 18800 ng/mL
[1]; 240 minutes
  CONCENTRATION (dissolution): 18800 ng/mL
[1]
  concentration achieved relative to the concentration of compound (I): 4- to 5 fold
[2]; Dog 1, 0.25 hours, oral capsule, 100 mg in terms of the free form
  PLASMA CONCENTRATION: BQL
[2]; Dog 1, 0.5 hours, oral capsule, 100 mg in terms of the free form
  PLASMA CONCENTRATION: 428 ng/mL
[2]; Dog 1, 1 hour, oral capsule, 100 mg in terms of the free form
  PLASMA CONCENTRATION: 506 ng/mL
[2]; Dog 1, 2 hours, oral capsule, 100 mg in terms of the free form
  PLASMA CONCENTRATION: 343 ng/mL
[2]; Dog 1, 4 hours, oral capsule, 100 mg in terms of the free form
  PLASMA CONCENTRATION: 219 ng/mL
[2]; Dog 1, 6 hours, oral capsule, 100 mg in terms of the free form
  PLASMA CONCENTRATION: 158 ng/mL
[2]; Dog 1, 8 hours, oral capsule, 100 mg in terms of the free form
  PLASMA CONCENTRATION: 134 ng/mL
[2]; Dog 1, 24 hours, oral capsule, 100 mg in terms of the free form
  PLASMA CONCENTRATION: 102 ng/mL
[2]; Dog 1, oral capsule, 100 mg in terms of the free form
  AREA UNDER PLASMA CONCENTRATION-TIME CURVE: 3830 ng·h/mL
[2]; Dog 2, 0.25 hours, oral capsule, 100 mg in terms of the free form
  PLASMA CONCENTRATION: BQL
[2]; Dog 2, 0.5 hours, oral capsule, 100 mg in terms of the free form
  PLASMA CONCENTRATION: 140 ng/mL
[2]; Dog 2, 1 hour, oral capsule, 100 mg in terms of the free form
  PLASMA CONCENTRATION: 457 ng/mL
[2]; Dog 2, 2 hours, oral capsule, 100 mg in terms of the free form
  PLASMA CONCENTRATION: 469 ng/mL
[2]; Dog 2, 4 hours, oral capsule, 100 mg in terms of the free form
  PLASMA CONCENTRATION: 313 ng/mL
[2]; Dog 2, 6 hours, oral capsule, 100 mg in terms of the free form
  PLASMA CONCENTRATION: 224 ng/mL
[2]; Dog 2, 8 hours, oral capsule, 100 mg in terms of the free form
  PLASMA CONCENTRATION: 199 ng/mL
[2]; Dog 2, 24 hours, oral capsule, 100 mg in terms of the free form
  PLASMA CONCENTRATION: 23 ng/mL
[2]; Dog 2, oral capsule, 100 mg in terms of the free form
  AREA UNDER PLASMA CONCENTRATION-TIME CURVE: 4160 ng·h/mL
[2]; Dog 3, 0.5 hours, oral capsule, 100 mg in terms of the free form
  PLASMA CONCENTRATION: 377 ng/mL
[2]; Dog 3, 1 hour, oral capsule, 100 mg in terms of the free form
  PLASMA CONCENTRATION: 422 ng/mL
[2]; Dog 3, 2 hours, oral capsule, 100 mg in terms of the free form
  PLASMA CONCENTRATION: 337 ng/mL
[2]; Dog 3, 4 hours, oral capsule, 100 mg in terms of the free form
  PLASMA CONCENTRATION: 272 ng/mL
[2]; Dog 3, 6 hours, oral capsule, 100 mg in terms of the free form
  PLASMA CONCENTRATION: 217 ng/mL
[2]; Dog 3, 8 hours, oral capsule, 100 mg in terms of the free form
  PLASMA CONCENTRATION: 147 ng/mL
[2]; Dog 3, 24 hours, oral capsule, 100 mg in terms of the free form
  PLASMA CONCENTRATION: 20 ng/mL
[2]; Dog 3, oral capsule, 100 mg in terms of the free form
  AREA UNDER PLASMA CONCENTRATION-TIME CURVE: 3490 ng·h/mL
[2]; Dog 4, 0.25 hours, oral capsule, 100 mg in terms of the free form
  PLASMA CONCENTRATION: BQL
[2]; Dog 4, 1 hour, oral capsule, 100 mg in terms of the free form
  PLASMA CONCENTRATION: 422 ng/mL
[2]; Dog 4, 2 hours, oral capsule, 100 mg in terms of the free form
  PLASMA CONCENTRATION: 401 ng/mL
[2]; Dog 4, 4 hours, oral capsule, 100 mg in terms of the free form
  PLASMA CONCENTRATION: 322 ng/mL
[2]; Dog 4, 6 hours, oral capsule, 100 mg in terms of the free form
  PLASMA CONCENTRATION: 248 ng/mL
[2]; Dog 4, 8 hours, oral capsule, 100 mg in terms of the free form
  PLASMA CONCENTRATION: 210 ng/mL
[2]; Dog 4, 24 hours, oral capsule, 100 mg in terms of the free form
  PLASMA CONCENTRATION: 74 ng/mL
[2]; Dog 4, oral capsule, 100 mg in terms of the free form
  AREA UNDER PLASMA CONCENTRATION-TIME CURVE: 4540 ng·h/mL
[2]; beagle, dog, plasma, po, 100 mg, Dog 3, 0.25 hours, oral capsule, 100 mg in terms of the free form
  concentration at 0.25 h: 279 ng/mL
[2]; beagle, dog, plasma, po, 100 mg, Dog 4, 0.5 hours, oral capsule, 100 mg in terms of the free form
  concentration at 0.5 h: 6 ng/mL
[2]; oral capsule, 100 mg in terms of the free form, Monomaleate Salt
  AREA UNDER PLASMA CONCENTRATION-TIME CURVE, MEAN: 4000 ± 450 ng·h/mL
[2]; oral capsule, 100 mg in terms of the free form, listed as EXAMPLE 1, Monomaleate Salt
  AREA UNDER PLASMA CONCENTRATION-TIME CURVE, MEAN: 4000 ng·h/mL
[2]; 0.5 hours, oral capsule, 100 mg in terms of the free form
  PLASMA CONCENTRATION MEAN: 315 ng/mL
[2]; 1 hour, oral capsule, 100 mg in terms of the free form
  PLASMA CONCENTRATION MEAN: 452 ng/mL
[2]; 2 hours, oral capsule, 100 mg in terms of the free form
  PLASMA CONCENTRATION MEAN: 388 ng/mL
[2]; 4 hours, oral capsule, 100 mg in terms of the free form
  PLASMA CONCENTRATION MEAN: 282 ng/mL
[2]; 6 hours, oral capsule, 100 mg in terms of the free form
  PLASMA CONCENTRATION MEAN: 212 ng/mL
[2]; 8 hours, oral capsule, 100 mg in terms of the free form
  PLASMA CONCENTRATION MEAN: 172 ng/mL
[2]; 24 hours, oral capsule, 100 mg in terms of the free form
  PLASMA CONCENTRATION MEAN: 55 ng/mL
[2]; oral capsule to beagle dogs, crossover
  absorption rate compared with compound (I): higher

## COc1ncc(C)c(-c2ccc3c(c2)[nH]c(=O)c2cnn([C@H]4CCOC4)c23)c1C.O=S(=O)(O)c1ccccc1 [Example 2, (S)-7-(2-methoxy-3,5-dimethylpyridin-4-yl)-1-(tetrahydrofuran-3-yl)-1H-pyrazolo[4,3-c]quinolin-4(5H)-one Monobenzenesulfonate Salt]
[1]; 6 minutes
  CONCENTRATION (dissolution): 0 ng/mL
[1]; 10 minutes
  CONCENTRATION (dissolution): 500 ng/mL
[1]; 15 minutes
  CONCENTRATION (dissolution): 7300 ng/mL
[1]; 20 minutes
  CONCENTRATION (dissolution): 9300 ng/mL
[1]; 30 minutes
  CONCENTRATION (dissolution): 10200 ng/mL
[1]; 60 minutes
  CONCENTRATION (dissolution): 10700 ng/mL
[1]; 90 minutes
  CONCENTRATION (dissolution): 10600 ng/mL
[1]; 120 minutes
  CONCENTRATION (dissolution): 10700 ng/mL
[1]; 180 minutes
  CONCENTRATION (dissolution): 9400 ng/mL
[1]; 240 minutes
  CONCENTRATION (dissolution): 9000 ng/mL
[1]
  concentration achieved relative to the concentration of compound (I): about 2 fold

From US9573947B2, “Salt of pyrazoloquinoline derivative, and crystal thereof” (Eisai R&D Management Co., Ltd., priority 2013, dated 2017)
